These results are taken from patent publication US8748415B2 (priority 2011, dated 2014).

This assay concerns recombinant NL4-3 virus (Renilla luciferase in nef, Gag P373S). In words: HIV cell culture assay (luciferase activity in MT-2 cells infected with NLRluc recombinant virus). It counts as cell-based. The following applies: NL43, MT-2 cells infected 4-5 days with NLRluc recombinant virus, class symbol. In a few lines: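 Activity was read as luciferase output (Dual Luciferase reagents premixed with lysis solution) after 4–5 days of infection in serially diluted inhibitor. Host cells were MT-2 in 10% FBS RPMI. The reporter virus came from transfected 293T cells and was titered on MT-2.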
As usually defined, the EC50 is the concentration at which the effect is half-maximal. On to `C=C(C)[C@@H]1CC[C@]2(CNCCC(=O)N3CCCC3)CC[C@]3(C)[C@H](CC[C@@H]4[C@@]5(C)CC=C(c6ccc(C(=O)O)cc6)C(C)(C)[C@@H]5CC[C@]43C)[C@@H]12` [Example 70, 4-((1R,3aS,5aR,5bR,7aR,11aS,11bR,13aR,13bR)-5a,5b,8,8,11a-pentamethyl-3a-((3-oxo-3-(pyrrolidin-1-yl)propylamino)methyl)-1-(prop-1-en-2-yl)-2,3,3a,4,5,5a,5b,6,7,7a,8,11,11a,11b,12,13,13a,13b-octadecahydro-1H-cyclopenta[a]chrysen-9-yl)benzoic acid], for which the EC50 is < 100 nM.

As to `C=C(C)[C@@H]1CC[C@]2(CNCCCN3C(=O)CCC3=O)CC[C@]3(C)[C@H](CC[C@@H]4[C@@]5(C)CC=C(c6ccc(C(=O)O)cc6)C(C)(C)[C@@H]5CC[C@]43C)[C@@H]12` [Example 71, 4-((1R,3aS,5aR,5bR,7aR,11aS,11bR,13aR,13bR)-3a-((3-(2,5-dioxopyrrolidin-1-yl)propylamino)methyl)-5a,5b,8,8,11a-pentamethyl-1-(prop-1-en-2-yl)-2,3,3a,4,5,5a,5b,6,7,7a,8,11,11a,11b,12,13,13a,13b-octadecahydro-1H-cyclopenta[a]chrysen-9-yl)benzoic acid], the EC50 was < 100 nM.

With `C=C(C)[C@@H]1CC[C@]2(CNCCCN3CCCCC3)CC[C@]3(C)[C@H](CC[C@@H]4[C@@]5(C)CC=C(c6ccc(C(=O)O)cc6)C(C)(C)[C@@H]5CC[C@]43C)[C@@H]12` [Example 72, 4-((1R,3aS,5aR,5bR,7aR,11aS,11bR,13aR,13bR)-5a,5b,8,8,11a-pentamethyl-3a-((3-(piperidin-1-yl)propylamino)methyl)-1-(prop-1-en-2-yl)-2,3,3a,4,5,5a,5b,6,7,7a,8,11,11a,11b,12,13,13a,13b-octadecahydro-1H-cyclopenta[a]chrysen-9-yl)benzoic acid], the half-maximal effective concentration (EC50) was < 100 nM.

With `C=C(C)[C@@H]1CC[C@]2(CNC/C=C/CN3CCS(=O)(=O)CC3)CC[C@]3(C)[C@H](CC[C@@H]4[C@@]5(C)CC=C(c6ccc(C(=O)O)cc6)C(C)(C)[C@@H]5CC[C@]43C)[C@@H]12` [Example 73, 4-((1R,3aS,5aR,5bR,7aR,11aS,11bR,13aR,13bR)-3a-((((2E)-4-(1,1-dioxido-4-thiomorpholinyl)-2-buten-1-yl)amino)methyl)-1-isopropenyl-5a,5b,8,8,11a-pentamethyl-2,3,3a,4,5,5a,5b,6,7,7a,8,11,11a,11b,12,13,13a,13b-octadecahydro-1H-cyclopenta[a]chrysen-9-yl)benzoic acid], the EC50 is < 100 nM.

Regarding `C=C(C)[C@@H]1CC[C@]2(CNCCCN3CCCC3CO)CC[C@]3(C)[C@H](CC[C@@H]4[C@@]5(C)CC=C(c6ccc(C(=O)O)cc6)C(C)(C)[C@@H]5CC[C@]43C)[C@@H]12` (stereo partly drawn) [Example 74, 4-((1R,3aS,5aR,5bR,7aR,11aS,11bR,13aR,13bR)-3a-((3-(2-(hydroxymethyl)pyrrolidin-1-yl)propylamino)methyl)-5a,5b,8,8,11a-pentamethyl-1-(prop-1-en-2-yl)-2,3,3a,4,5,5a,5b,6,7,7a,8,11,11a,11b,12,13,13a,13b-octadecahydro-1H-cyclopenta[a]chrysen-9-yl)benzoic acid], the EC50 was < 100 nM.

With `C=C(C)[C@@H]1CC[C@]2(CNCCC(=O)N(C)C)CC[C@]3(C)[C@H](CC[C@@H]4[C@@]5(C)CC=C(c6ccc(C(=O)O)cc6)C(C)(C)[C@@H]5CC[C@]43C)[C@@H]12` [Example 75, 4-((1R,3aS,5aR,5bR,7aR,11aS,11bR,13aR,13bR)-3a-((3-(dimethylamino)-3-oxopropylamino)methyl)-5a,5b,8,8,11a-pentamethyl-1-(prop-1-en-2-yl)-2,3,3a,4,5,5a,5b,6,7,7a,8,11,11a,11b,12,13,13a,13b-octadecahydro-1H-cyclopenta[a]chrysen-9-yl)benzoic acid], the EC50 was < 100 nM.

On to `C=C(C)[C@@H]1CC[C@]2(CNCCCCN3CCS(=O)(=O)CC3)CC[C@]3(C)[C@H](CC[C@@H]4[C@@]5(C)CC=C(c6ccc(C(=O)O)cc6)C(C)(C)[C@@H]5CC[C@]43C)[C@@H]12` [Example 76, 4-((1R,3aS,5aR,5bR,7aR,11aS,11bR,13aR,13bR)-3a-(((4-(1,1-dioxido-4-thiomorpholinyl)butyl)amino)methyl)-1-isopropenyl-5a,5b,8,8,11a-pentamethyl-2,3,3a,4,5,5a,5b,6,7,7a,8,11,11a,11b,12,13,13a,13b-octadecahydro-1H-cyclopenta[a]chrysen-9-yl)benzoic acid], for which the EC50 is < 100 nM.

In the case of `C=C(C)[C@@H]1CC[C@]2(CNCCN3CCNC3=O)CC[C@]3(C)[C@H](CC[C@@H]4[C@@]5(C)CC=C(c6ccc(C(=O)O)cc6)C(C)(C)[C@@H]5CC[C@]43C)[C@@H]12` [Example 77, 4-((1R,3aS,5aR,5bR,7aR,11aS,11bR,13aR,13bR)-5a,5b,8,8,11a-pentamethyl-3a-((2-(2-oxoimidazolidin-1-yl)ethylamino)methyl)-1-(prop-1-en-2-yl)-2,3,3a,4,5,5a,5b,6,7,7a,8,11,11a,11b,12,13,13a,13b-octadecahydro-1H-cyclopenta[a]chrysen-9-yl)benzoic acid], the EC50 is < 100 nM.

For the compound `C=C(C)[C@@H]1CC[C@]2(CNCCN3CCCCC3=O)CC[C@]3(C)[C@H](CC[C@@H]4[C@@]5(C)CC=C(c6ccc(C(=O)O)cc6)C(C)(C)[C@@H]5CC[C@]43C)[C@@H]12` [Example 78, 4-((1R,3aS,5aR,5bR,7aR,11aS,11bR,13aR,13bR)-5a,5b,8,8,11a-pentamethyl-3a-((2-(2-oxopiperidin-1-yl)ethylamino)methyl)-1-(prop-1-en-2-yl)-2,3,3a,4,5,5a,5b,6,7,7a,8,11,11a,11b,12,13,13a,13b-octadecahydro-1H-cyclopenta[a]chrysen-9-yl)benzoic acid], the EC50 is < 100 nM.

With `C=C(C)[C@@H]1CC[C@]2(CNCC(C)CN3CCCC3=O)CC[C@]3(C)[C@H](CC[C@@H]4[C@@]5(C)CC=C(c6ccc(C(=O)O)cc6)C(C)(C)[C@@H]5CC[C@]43C)[C@@H]12` (stereo partly drawn) [Example 79, 4-((1R,3aS,5aR,5bR,7aR,11aS,11bR,13aR,13bR)-5a,5b,8,8,11a-pentamethyl-3a-((2-methyl-3-(2-oxopyrrolidin-1-yl)propylamino)methyl)-1-(prop-1-en-2-yl)-2,3,3a,4,5,5a,5b,6,7,7a,8,11,11a,11b,12,13,13a,13b-octadecahydro-1H-cyclopenta[a]chrysen-9-yl)benzoic acid], the EC50 is < 100 nM.

For the compound `C=C(C)[C@@H]1CC[C@]2(CNCCCN3C(=O)CCCC3=O)CC[C@]3(C)[C@H](CC[C@@H]4[C@@]5(C)CC=C(c6ccc(C(=O)O)cc6)C(C)(C)[C@@H]5CC[C@]43C)[C@@H]12` [Example 80, 4-((1R,3aS,5aR,5bR,7aR,11aS,11bR,13aR,13bR)-3a-((3-(2,6-dioxopiperidin-1-yl)propylamino)methyl)-5a,5b,8,8,11a-pentamethyl-1-(prop-1-en-2-yl)-2,3,3a,4,5,5a,5b,6,7,7a,8,11,11a,11b,12,13,13a,13b-octadecahydro-1H-cyclopenta[a]chrysen-9-yl)benzoic acid], the EC50 was < 100 nM.

Regarding `C=C(C)[C@@H]1CC[C@]2(CNCC(O)CN3CCCC3=O)CC[C@]3(C)[C@H](CC[C@@H]4[C@@]5(C)CC=C(c6ccc(C(=O)O)cc6)C(C)(C)[C@@H]5CC[C@]43C)[C@@H]12` (stereo partly drawn) [Example 81, 4-((1R,3aS,5aR,5bR,7aR,11aS,11bR,13aR,13bR)-3a-((2-hydroxy-3-(2-oxopyrrolidin-1-yl)propylamino)methyl)-5a,5b,8,8,11a-pentamethyl-1-(prop-1-en-2-yl)-2,3,3a,4,5,5a,5b,6,7,7a,8,11,11a,11b,12,13,13a,13b-octadecahydro-1H-cyclopenta[a]chrysen-9-yl)benzoic acid], the EC50 is < 100 nM.

With `C=C(C)[C@@H]1CC[C@]2(CNC3(CN4CCCCC4)CC3)CC[C@]3(C)[C@H](CC[C@@H]4[C@@]5(C)CC=C(c6ccc(C(=O)O)cc6)C(C)(C)[C@@H]5CC[C@]43C)[C@@H]12` [Example 82, 4-((1R,3aS,5aR,5bR,7aR,11aS,11bR,13aR,13bR)-5a,5b,8,8,11a-pentamethyl-3a-((1-(piperidin-1-ylmethyl)cyclopropylamino)methyl)-1-(prop-1-en-2-yl)-2,3,3a,4,5,5a,5b,6,7,7a,8,11,11a,11b,12,13,13a,13b-octadecahydro-1H-cyclopenta[a]chrysen-9-yl)benzoic acid], the EC50 is < 100 nM.

Take `C=C(C)[C@@H]1CC[C@]2(CN(C)C)CC[C@]3(C)[C@H](CC[C@@H]4[C@@]5(C)CC=C(c6ccc(C(=O)O)cc6)C(C)(C)[C@@H]5CC[C@]43C)[C@@H]12` [Example 83, 4-((1R,3aS,5aR,5bR,7aR,11aS,11bR,13aR,13bR)-3a-((dimethylamino)methyl)-5a,5b,8,8,11a-pentamethyl-1-(prop-1-en-2-yl)-2,3,3a,4,5,5a,5b,6,7,7a,8,11,11a,11b,12,13,13a,13b-octadecahydro-1H-cyclopenta[a]chrysen-9-yl)benzoic acid]: the EC50 is < 100 nM.

As for `C=C(C)[C@@H]1CC[C@]2(CN(CCCN3CCS(=O)(=O)CC3)C3CC3)CC[C@]3(C)[C@H](CC[C@@H]4[C@@]5(C)CC=C(c6ccc(C(=O)O)cc6)C(C)(C)[C@@H]5CC[C@]43C)[C@@H]12` [Example 84, 4-((1R,3aS,5aR,5bR,7aR,11aS,11bR,13aR,13bR)-3a-((cyclopropyl(3-(1,1-dioxido-4-thiomorpholinyl)propyl)amino)methyl)-1-isopropenyl-5a,5b,8,8,11a-pentamethyl-2,3,3a,4,5,5a,5b,6,7,7a,8,11,11a,11b,12,13,13a,13b-octadecahydro-1H-cyclopenta[a]chrysen-9-yl)benzoic acid], the EC50 was < 100 nM.
